From US9481885B2, “Methods and compositions related to miR-21 and miR-29a, exosome inhibition, and cancer metastasis” (Ohio State Innovation Foundation, priority 2011, dated 2016)

Tests used:
TLR8-HEK-293 cells = experiment: NF-κB activation in TLR8-HEK-293 cells treated with LLC exosomes, with or without Bafilomycin A; format: cell-based, human; settings: TLR8-HEK-293 cells pretreated with 10 nM Bafilomycin A; P<0.0005
Procedure: Next, LLC cells were injected into the tails of WT and TLR7^−/− mice and the overall survival of the animals and number of lung multiplicities after necropsy was assessed. […] For the experiment with Bafilomycin A, TLR8-HEK-293 cells were seeded in a 24-well plate at a density of 200,000 cells per well. The next day cells were preincubated with 10 nM Bafilomycin A (Sigma) for 30 min and then were treated for 24 h with exosomes purified from LLC cells in the presence or absence of 10 nM Bafilomycin A. Cell supernatants were collected and harvested, and the QUANTI-Blue Assay was performed. NF-κB activity was assessed by QUANTI-Blue Assay (Invivogen). HEK-Blue-TLR7 and TLR8 293 cells allow verification of the activation of NF-κB after the stimulation of the respective TLRs. Both these cell lines were obtained by co-transfection of the TLR7 and 8 genes and an optimized secreted embryonic alkaline phosphatase reporter gene (SEAP) under the control of the […] minimal promoter fused to five NF-κB and AP-1-binding sites into HEK-293 cells. […] Levels of SEAP can be easily determined with QUANTI-Blue, a detection medium that turns purple/blue in the presence of alkaline phosphatase. […] The plate was then incubated at 37° C. for 1-3 h and SEAP levels were determined by reading the plate with a spectrophotometer at 620-655 nm (SpectraMax, Molecular Devices).

LLC cells = experiment: Lung multiplicities in LLC-injected B6 mice treated with GW4869, with exosome rescue; format: in vivo, mouse; settings: WT B6 mice injected with LLC cells; GW4869 i.p. 1.25 mg/kg/d for 5 d
Procedure: Finally, to assess the role of miRNAs released from lung cancer exosomes in TLR7 activation and in the metastatic process, the expression was silenced of miR-16 or of miR-21 and -29a combined in LLC cells by Locked Nucleic Acid (LNA) anti-miRNA inhibitors. After anti-miRNA transfection, the levels of the silenced miRNAs were reduced in the exosomes derived from these cells (FIG. 7F). The transfected cells were injected into the tail vein of B6 mice, and lung multiplicities were counted. […] We further investigated which miRNAs are expressed in cancer cells and adjacent normal lung tissues in mice injected with anti-scrambled LLCs or anti-miR-21/29a LLCs. Cancer cells in lung tumors developed by mice injected with anti-scrambled LLC were positive for the anti-scrambled oligonucleotide.
The in vivo rescue experiment with LLC cells was conducted in 15 male, 7-wk-old B6 mice. Mice were injected with 1.8×10^6 LLC cells in the tail vein in 300 μL of volume (T0). After 4 d (T4), i.p. injections were started for 10 mice with GW4869 (1.25 mgkg^−1d^−1), an inhibitor of exosome secretion also able to reduce the content of miRNAs in secreted exosomes, and of five mice with DMSO (a solvent of GW4869) as a control, daily for 5 d consecutively. […] All mice were killed at T18, necropsy was performed, and lung multiplicities were counted.

Row | Structure (SMILES) | NF-κB activation by LLC-derived exosomes in the presence of Bafilomycin A (TLR8-HEK-293 cells) | number of lung multiplicities (LLC cells)
1 | CO/C1=C\C(C)=C\[C@@H](C)[C@@H](O)[C@@H](C)C/C(C)=C/C=C/[C@H](OC)[C@@H]([C@@H](C)[C@@H](O)[C@H](C)[C@@]2(O)C[C@@H](O)[C@H](C)[C@@H](C(C)C)O2)OC1=O [Bafilomycin A] | significantly reduced | 
2 | O=C(/C=C/c1ccc(/C=C/C(=O)Nc2ccc(C3=NCCN3)cc2)cc1)Nc1ccc(C2=NCCN2)cc1 [GW4869] |  | significantly lower
